Test system: M. tuberculosis H37Rv

Molecule | effect on viability / lethality (words, FIG. 1)
Carbon dioxide | only a slight lethal effect
[HH] [hydrogen] | as effective as Bioblend
